The test system of one experiment is CCR2 receptor. In words: Receptor occupancy of the CCR2 receptor over time (blood monocytes, FACS). As to conditions: dose 10 mg/kg. It is filed as in vivo. On the procedure:
The Agents of the Invention typically have a favourable pharmacokinetic profile, i.e. such as a relatively fast elimination over time. A faster elimination is typically indicative for an improved tolerability or is typically associable with less side effects. Such may be assessed by determining for example the receptor occupancy of the CCR2 receptor over time.
Receptor occupancy assaying may be performed in 96-well plates. 45 microliters of freshly obtained blood samples are incubated with 5 microliter of a MCP-1 solution (several concentrations for assessing a biding curve). The concentration of said MCP-1 solution is from 0.01 to 100 nanomolar, whereby the dilutions are made in RPMI1640 with glutamax supplemented with 1% nonessential amino acids, sodium pyruvate, penicillin/streptomycin, […] beta-mercaptoethanol and 1% human albumin.
Said incubation is carried out for 30 min at 37° C., and is then stopped by adding 180 microliter BD FACS lysis solution followed by centrifugation. Said lysis addition and centrifugation is repeated once and the remaining cells are then washed with ice cold FACS buffer ([…] containing 2% FCS and 0.1% NaN3). Thereupon, the cells are stained with antibodies for FACS analysis.
The cells are now triple stained with FITC-conjugated anti-CD14, PE-conjugated anti-HLA-DR and APC-conjugated anti-CCR2. The antibodies are diluted into FACS buffer, supplemented with 3 mg/ml juman IgG, and the staining is performed in a total of 25 microliter for 30 min. on ice. The stained cells are washed twice with cold FACS buffer and then analyzed by flow cytometry using a FACScalibur and CellQuest software. The expression of CCR2 on CD-14- and HLA-DR-positive monocytes is determined and expressed as mean fluorescence intensity (MFI). The relative CCR2 expression is expressed as percent of control staining.

Another experiment addresses T1, hCCR2b (Homo sapiens, UniProt P41597).
T1 construct: expressed in transfected cells; host or cells: CHO-dukX
T1 sequence (P41597 1-360 isoform P41597-2): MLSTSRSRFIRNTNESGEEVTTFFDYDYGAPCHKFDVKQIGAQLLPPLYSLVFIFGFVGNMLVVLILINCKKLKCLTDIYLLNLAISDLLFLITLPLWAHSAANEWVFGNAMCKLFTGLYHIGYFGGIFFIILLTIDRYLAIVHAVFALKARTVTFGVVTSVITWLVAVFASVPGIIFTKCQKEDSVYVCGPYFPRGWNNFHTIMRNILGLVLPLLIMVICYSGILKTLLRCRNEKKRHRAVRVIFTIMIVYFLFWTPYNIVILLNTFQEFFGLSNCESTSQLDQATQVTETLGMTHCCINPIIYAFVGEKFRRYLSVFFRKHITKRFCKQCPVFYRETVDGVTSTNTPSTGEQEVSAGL
In words: CCR2 membrane binding assay (SPA, [125I] MCP-1). As to conditions: table does not name the assay; b437 says 'in these assays'. On the procedure: Transfected CHO-dukX cells stably expressing the hCCR2b gene are grown in MEM alpha medium to a confluency of between 70 and 80%. After discarding the medium, 30 ml ice-cold physiological buffer solution containing 1 mM EDTA are added and the cells removed from the plate using a scraper. The cell suspension is centrifuged at 800 g for 10′ at 4° C. and the cell pellet resuspended in buffer. Cell lysis is done using a Polytron PTI300D instrument at 28 000 RPM for 2 times 30 seconds on ice. Membranes are collected by centrifugation at 42 000 g for 20 minutes at 4° C. and subjected to a second round of lysis (Polytron, 28 000 RPM, 2×30 seconds on ice). Following centrifugation at 42 000 g for 20 minutes at 4° C. the membranes are resuspended in buffer at a protein concentration of 2 mg/ml and stored at −80° C. Ten millimolar stock solutions of test compounds in 100% DMSO are prepared. Test compounds are further diluted in buffer to yield the four-fold concentrated solutions for the tests that assayed a range of 10^−10 to 10^−5 M. The SPA assay is performed in a final volume of 200 μl per well in 96 well plates. The components are added per well in the following order: • 50 μl Buffer (+/−test compound) • 50 μl Wheat germ agglutinin-SPA beads (1.25 mg/well) in buffer • 50 μl CCR2B membrane suspension diluted with buffer to 0.04 mg/ml (2 μg/well), alternatively 50,000 cells per well • 50 μl [^125I] MCP-1 in buffer (60 pM final concentration, 2.5 μCi/plate)
After addition of all components the plate is sealed and incubated for 90 minutes at room temperature with constant shaking. Following incubation the plate is centrifuged at 1000 RPM in a Sorvall RC3B centrifuge for 4 minutes at room temperature and counted for 3 minutes per well in a TOP COUNT instrument (Packard). The quench-corrected counts are used for the analysis of radioligand binding.

Another experiment concerns the target T2, Human CCR5 (Homo sapiens, UniProt P51681).
T2 construct: expressed in transfected cells; host or cells: CHO K1
In words: CCR5 membrane binding assay ([I-125]MIP-1α). As to conditions: table does not name the assay; b437 says 'in these assays'. How it is done: Human CCR5 is used to generate stable transfectants in CHO K1 cells. Membranes prepared from these CCR5 transfectants are used in a radioligand binding assay using 125-1-MIP-1α as a ligand and the compounds of formula I are tested for inhibitory activity. The data are reported as IC50, i.e. the concentration of compound required to achieve 50% inhibition of [I-125]MIP-1α binding. In this assay, compounds of formula I have an IC50 between 0.004 and 10 μM.

T2 sequence (P51681 whole entry): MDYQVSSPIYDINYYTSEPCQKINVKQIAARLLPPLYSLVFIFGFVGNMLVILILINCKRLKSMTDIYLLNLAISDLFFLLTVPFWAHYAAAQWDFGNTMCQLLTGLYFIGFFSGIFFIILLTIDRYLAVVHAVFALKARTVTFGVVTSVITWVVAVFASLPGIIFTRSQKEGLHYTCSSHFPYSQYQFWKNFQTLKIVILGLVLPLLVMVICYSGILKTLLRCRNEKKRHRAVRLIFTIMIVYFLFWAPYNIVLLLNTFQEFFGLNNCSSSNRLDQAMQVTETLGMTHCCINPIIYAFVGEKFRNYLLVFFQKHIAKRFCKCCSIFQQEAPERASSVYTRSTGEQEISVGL

Regarding `C[C@H]1CN(CC[C@]2(O)CC[C@@H](NC(=O)c3cc4c(OCc5coc6cc(OCC7CC7)ccc56)cccc4[nH]3)CC2)CC[C@@H]1O` [Example 15, 4-(6-Cyclopropylmethoxy-benzofuran-3-ylmethoxy)-1H-indole-2-carboxylic acid {4-hydroxy-4-[2-((3S,4S)-4-hydroxy-3-methyl-piperidin-1-yl)-ethyl]-cyclohexyl}-amide], the “Receptor blockade After 2 hrs in %” value with CCR2 receptor was 103.2%. Further, the “Receptor blockade After 24 hrs in %” value in the experiment on CCR2 receptor is reported as 42.6%. Further, the IC50 on hCCR2b turned out to be 0.4 nM; at Human CCR5, 4.8 nM.
Turning to `CCOCCOc1ccc2c(COc3cccc4[nH]c(C(=O)N[C@H]5CC[C@](O)(CCN6CC[C@H](O)[C@@H](C)C6)CC5)cc34)coc2c1` [Example 16, 4-[6-(2-Ethoxy-ethoxy)-benzofuran-3-ylmethoxy]-1H-indole-2-carboxylic acid {4-hydroxy-4-[2-((3S,4S)-4-hydroxy-3-methyl-piperidin-1-yl)-ethyl]-cyclohexyl}-amide], in the experiment on CCR2 receptor, the “Receptor blockade After 2 hrs in %” value is reported as 78.1%. Besides, the “Receptor blockade After 24 hrs in %” value with CCR2 receptor was 21.6%. Further, the IC50 at hCCR2b was 0.8 nM; at Human CCR5, 2.9 nM.
For `CC(C)OCCOc1ccc2c(COc3cccc4[nH]c(C(=O)N[C@H]5CC[C@](O)(CCN6CC[C@H](O)[C@@H](C)C6)CC5)cc34)coc2c1` [Example 18, 4-[6-(2-Isopropoxy-ethoxy)-benzofuran-3-ylmethoxy]-1H-indole-2-carboxylic acid {4-hydroxy-4-[2-((3S,4S)-4-hydroxy-3-methyl-piperidin-1-yl)-ethyl]-cyclohexyl}-amide] the same measures were 88.2%, 43.5%, 0.2 nM and 3.3 nM.

The IC50 is the concentration needed to halve the response being measured. Lower therefore signals higher potency.

For the origin of these results see patent US8354431B2, “Aryl carboxylic acid cyclohexyl amide derivatives” (Novartis AG, priority 2007, dated 2013).
